In publication PMC11831560, “Development of the Pyrido[2,3-d]pyrimidin-7(8H)-one Scaffold toward Potent and Selective NUAK1 Inhibitors” (ACS Medicinal Chemistry Letters, 2025):

Assays:
Assay in all cases: Kinase panel radiometric filter binding (33P-ATP)
Type in all cases: biochemical
Design in all cases: dose or concentration left out as unconfirmed
[1] = target: PKBa (Homo sapiens, UniProt P31749)
Description: (§1) Table S4: AMPKA kinase activity data (ADP-Glo assay)
(§2) Compound pIC50 (Fold selectivity
(§3) Table S5. Kinase selectivity screening for 9 and 24 at 1 µM against a general kinase panel of 140 targets
(§4) in radiometric filter binding assay using 33P-γ−ATP at the MRC PPU International Centre for Kinase
(§5) Profiling, University of Dundee. pIC50 values were determined for compounds with <20% activity
(§6) Kinase activity s.d. pIC50 activity s.d. pIC50

[2] = target: EPH-A4 (Homo sapiens, UniProt P54764)
Chain of EPH-A4 (P54764 20-986): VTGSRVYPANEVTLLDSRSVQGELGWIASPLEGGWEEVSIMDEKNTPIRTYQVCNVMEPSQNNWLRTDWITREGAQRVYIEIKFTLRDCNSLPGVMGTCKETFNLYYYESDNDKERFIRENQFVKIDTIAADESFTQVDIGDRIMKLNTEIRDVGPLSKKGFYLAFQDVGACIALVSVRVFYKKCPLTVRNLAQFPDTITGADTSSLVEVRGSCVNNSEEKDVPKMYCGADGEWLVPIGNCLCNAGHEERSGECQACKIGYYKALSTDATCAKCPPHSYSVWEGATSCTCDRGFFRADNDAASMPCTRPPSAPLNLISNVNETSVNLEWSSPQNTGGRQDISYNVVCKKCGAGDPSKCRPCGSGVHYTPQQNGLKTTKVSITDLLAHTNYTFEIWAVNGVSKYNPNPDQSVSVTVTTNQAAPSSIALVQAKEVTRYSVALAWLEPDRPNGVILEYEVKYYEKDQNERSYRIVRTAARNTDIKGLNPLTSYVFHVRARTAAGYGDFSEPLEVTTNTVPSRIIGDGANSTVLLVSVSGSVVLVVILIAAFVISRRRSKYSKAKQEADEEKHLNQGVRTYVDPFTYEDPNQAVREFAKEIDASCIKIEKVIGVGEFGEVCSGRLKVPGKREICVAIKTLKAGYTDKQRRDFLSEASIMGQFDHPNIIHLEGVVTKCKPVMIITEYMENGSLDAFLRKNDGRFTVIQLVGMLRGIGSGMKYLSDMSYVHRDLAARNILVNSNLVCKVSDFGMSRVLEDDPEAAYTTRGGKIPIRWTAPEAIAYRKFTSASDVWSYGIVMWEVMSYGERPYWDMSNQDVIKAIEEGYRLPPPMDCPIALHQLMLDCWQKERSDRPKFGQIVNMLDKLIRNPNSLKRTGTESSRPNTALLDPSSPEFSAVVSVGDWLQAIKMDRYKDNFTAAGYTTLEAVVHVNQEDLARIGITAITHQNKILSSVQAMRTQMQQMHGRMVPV
Description: as §1, §2, §3, §4, §5, §6

[3] = target: Aurora A (Homo sapiens, UniProt O14965)
Description: as §1, §2, §3, §4, §5, §6

[4] = target: AMPK (hum) (Homo sapiens, UniProt Q13131)
Description: as §1, §2, §3, §4, §5, §6

[5] = target: ASK1 (Homo sapiens, UniProt Q99683)
Description: as §1, §2, §3, §4, §5, §6

[6] = target: MEKK1 (Homo sapiens, UniProt Q13233)
Description: as §1, §2, §3, §4, §5, §6

[7] = target: ERK5 (Homo sapiens, UniProt Q13164)
Description: as §1, §2, §3, §4, §5, §6

[8] = target: ZAP70 (Homo sapiens, UniProt P43403)
Description: as §1, §2, §3, §4, §5, §6

[9] = target: Src (Homo sapiens, UniProt P12931)
Description: as §1, §2, §3, §4, §5, §6

[10] = target: DYRK2 (Homo sapiens, UniProt Q92630)
Description: as §1, §2, §3, §4, §5, §6

[11] = target: SGK1 (Homo sapiens, UniProt O00141)
Chain of SGK1 (O00141 whole entry): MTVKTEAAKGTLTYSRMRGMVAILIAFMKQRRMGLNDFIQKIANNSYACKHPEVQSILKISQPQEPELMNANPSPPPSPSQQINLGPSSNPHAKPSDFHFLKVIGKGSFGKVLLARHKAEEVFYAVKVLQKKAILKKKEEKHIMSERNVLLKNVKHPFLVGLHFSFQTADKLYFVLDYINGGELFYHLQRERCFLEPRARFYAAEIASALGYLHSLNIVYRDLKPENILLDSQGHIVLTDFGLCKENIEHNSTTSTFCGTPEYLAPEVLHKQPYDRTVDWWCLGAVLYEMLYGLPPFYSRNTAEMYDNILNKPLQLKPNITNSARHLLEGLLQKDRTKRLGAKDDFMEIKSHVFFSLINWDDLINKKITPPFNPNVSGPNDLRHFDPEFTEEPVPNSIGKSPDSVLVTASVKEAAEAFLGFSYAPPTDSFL
Description: as §1, §2, §3, §4, §5, §6

[12] = target: MKK2 (Homo sapiens, UniProt P36507)
Chain of MKK2 (P36507 whole entry): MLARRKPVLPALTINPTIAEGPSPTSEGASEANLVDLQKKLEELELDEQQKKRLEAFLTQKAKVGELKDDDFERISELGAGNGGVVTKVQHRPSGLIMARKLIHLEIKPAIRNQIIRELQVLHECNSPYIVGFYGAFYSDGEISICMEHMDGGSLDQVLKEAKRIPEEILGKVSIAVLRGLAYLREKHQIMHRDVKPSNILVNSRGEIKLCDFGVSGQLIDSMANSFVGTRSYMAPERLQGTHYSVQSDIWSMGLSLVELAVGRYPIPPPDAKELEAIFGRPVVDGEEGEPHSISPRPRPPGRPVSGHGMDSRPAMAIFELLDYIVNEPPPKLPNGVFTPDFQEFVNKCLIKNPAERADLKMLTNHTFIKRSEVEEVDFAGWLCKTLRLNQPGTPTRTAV
Description: as §1, §2, §3, §4, §5, §6

[13] = target: CDK9-Cyclin T1 (Homo sapiens, UniProt P50750)
Chain of CDK9-Cyclin T1 (P50750 whole entry): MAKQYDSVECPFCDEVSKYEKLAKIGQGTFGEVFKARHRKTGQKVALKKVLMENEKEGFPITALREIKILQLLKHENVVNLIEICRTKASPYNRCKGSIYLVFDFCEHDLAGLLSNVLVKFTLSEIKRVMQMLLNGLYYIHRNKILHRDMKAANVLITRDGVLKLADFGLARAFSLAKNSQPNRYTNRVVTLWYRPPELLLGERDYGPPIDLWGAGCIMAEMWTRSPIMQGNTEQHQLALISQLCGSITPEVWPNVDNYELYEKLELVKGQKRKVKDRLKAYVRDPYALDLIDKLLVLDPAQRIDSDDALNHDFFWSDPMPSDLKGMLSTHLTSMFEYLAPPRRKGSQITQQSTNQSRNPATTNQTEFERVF
Chain of CDK9-Cyclin T1 (O60563 whole entry partner): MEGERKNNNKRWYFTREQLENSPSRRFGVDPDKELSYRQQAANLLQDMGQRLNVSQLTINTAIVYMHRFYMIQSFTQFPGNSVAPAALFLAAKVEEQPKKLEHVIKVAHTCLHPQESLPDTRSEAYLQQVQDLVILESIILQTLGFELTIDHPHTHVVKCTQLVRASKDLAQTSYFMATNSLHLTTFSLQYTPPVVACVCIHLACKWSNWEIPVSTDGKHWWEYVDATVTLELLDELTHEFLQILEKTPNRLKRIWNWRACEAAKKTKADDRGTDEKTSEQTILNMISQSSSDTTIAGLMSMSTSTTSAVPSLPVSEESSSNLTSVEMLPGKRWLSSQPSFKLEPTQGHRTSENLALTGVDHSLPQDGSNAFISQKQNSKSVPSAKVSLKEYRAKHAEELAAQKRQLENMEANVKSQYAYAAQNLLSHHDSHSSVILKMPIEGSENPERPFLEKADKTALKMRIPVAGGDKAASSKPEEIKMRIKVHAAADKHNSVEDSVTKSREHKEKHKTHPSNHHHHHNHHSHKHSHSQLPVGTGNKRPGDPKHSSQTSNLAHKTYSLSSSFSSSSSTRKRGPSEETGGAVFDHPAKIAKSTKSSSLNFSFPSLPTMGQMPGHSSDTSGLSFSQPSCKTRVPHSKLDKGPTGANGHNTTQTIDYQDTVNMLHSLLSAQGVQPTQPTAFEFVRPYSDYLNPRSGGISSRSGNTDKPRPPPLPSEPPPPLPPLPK
Description: as §1, §2, §3, §4, §5, §6

[14] = target: MAP4K3 (Homo sapiens, UniProt Q8IVH8)
Description: as §1, §2, §3, §4, §5, §6

[15] = target: BTK (Homo sapiens, UniProt Q06187)
Description: as §1, §2, §3, §4, §5, §6

[16] = target: PAK4 (Homo sapiens, UniProt O96013)
Description: as §1, §2, §3, §4, §5, §6

[17] = target: TIE2 (Homo sapiens, UniProt Q02763)
Description: as §1, §2, §3, §4, §5, §6

[18] = target: PLK1 (Homo sapiens, UniProt P53350)
Description: as §1, §2, §3, §4, §5, §6

[19] = target: STK33 (Homo sapiens, UniProt Q9BYT3)
Description: as §1, §2, §3, §4, §5, §6

[20] = target: DYRK3 (Homo sapiens, UniProt O43781)
Chain of DYRK3 (O43781 whole entry): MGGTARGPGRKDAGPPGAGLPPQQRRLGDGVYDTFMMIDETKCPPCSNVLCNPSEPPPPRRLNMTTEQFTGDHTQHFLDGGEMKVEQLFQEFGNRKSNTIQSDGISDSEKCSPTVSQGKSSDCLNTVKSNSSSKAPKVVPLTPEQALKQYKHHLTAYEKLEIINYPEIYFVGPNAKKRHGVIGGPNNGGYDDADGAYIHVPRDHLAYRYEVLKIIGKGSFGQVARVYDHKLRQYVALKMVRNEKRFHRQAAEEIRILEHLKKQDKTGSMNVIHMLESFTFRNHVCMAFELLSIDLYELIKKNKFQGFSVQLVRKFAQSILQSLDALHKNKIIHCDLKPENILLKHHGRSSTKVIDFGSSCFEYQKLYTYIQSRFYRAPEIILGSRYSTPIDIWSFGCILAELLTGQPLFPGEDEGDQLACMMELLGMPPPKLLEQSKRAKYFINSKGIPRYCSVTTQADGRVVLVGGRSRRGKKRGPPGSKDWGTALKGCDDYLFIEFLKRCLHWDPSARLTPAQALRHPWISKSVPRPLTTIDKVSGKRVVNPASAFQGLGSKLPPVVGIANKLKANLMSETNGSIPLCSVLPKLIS
Description: as §1, §2, §3, §4, §5, §6

[21] = target: BRSK2 (Homo sapiens, UniProt Q8IWQ3)
Description: as §1, §2, §3, §4, §5, §6

[22] = target: RSK2 (Homo sapiens, UniProt P51812)
Description: as §1, §2, §3, §4, §5, §6

[23] = target: ULK1 (Homo sapiens, UniProt O75385)
Description: as §1, §2, §3, §4, §5, §6

[24] = target: DYRK1A (Homo sapiens, UniProt Q13627)
Description: as §1, §2, §3, §4, §5, §6

[25] = target: CDK2-Cyclin A (Homo sapiens, UniProt P24941)
Description: as §1, §2, §3, §4, §5, §6

[26] = target: PIM2 (Homo sapiens, UniProt Q9P1W9)
Chain of PIM2 (Q9P1W9 whole entry): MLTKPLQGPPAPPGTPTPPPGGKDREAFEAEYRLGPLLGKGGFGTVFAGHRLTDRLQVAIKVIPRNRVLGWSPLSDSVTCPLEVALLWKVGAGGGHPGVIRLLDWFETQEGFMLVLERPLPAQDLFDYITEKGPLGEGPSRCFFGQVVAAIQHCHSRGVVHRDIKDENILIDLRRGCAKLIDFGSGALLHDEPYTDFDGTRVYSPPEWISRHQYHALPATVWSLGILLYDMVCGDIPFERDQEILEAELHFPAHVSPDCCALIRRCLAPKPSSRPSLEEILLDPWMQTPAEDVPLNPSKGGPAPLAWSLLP
Description: as §1, §2, §3, §4, §5, §6

[27] = target: GCK (Homo sapiens, UniProt Q12851)
Description: as §1, §2, §3, §4, §5, §6

[28] = target: CLK2 (Homo sapiens, UniProt P49760)
Chain of CLK2 (P49760 whole entry): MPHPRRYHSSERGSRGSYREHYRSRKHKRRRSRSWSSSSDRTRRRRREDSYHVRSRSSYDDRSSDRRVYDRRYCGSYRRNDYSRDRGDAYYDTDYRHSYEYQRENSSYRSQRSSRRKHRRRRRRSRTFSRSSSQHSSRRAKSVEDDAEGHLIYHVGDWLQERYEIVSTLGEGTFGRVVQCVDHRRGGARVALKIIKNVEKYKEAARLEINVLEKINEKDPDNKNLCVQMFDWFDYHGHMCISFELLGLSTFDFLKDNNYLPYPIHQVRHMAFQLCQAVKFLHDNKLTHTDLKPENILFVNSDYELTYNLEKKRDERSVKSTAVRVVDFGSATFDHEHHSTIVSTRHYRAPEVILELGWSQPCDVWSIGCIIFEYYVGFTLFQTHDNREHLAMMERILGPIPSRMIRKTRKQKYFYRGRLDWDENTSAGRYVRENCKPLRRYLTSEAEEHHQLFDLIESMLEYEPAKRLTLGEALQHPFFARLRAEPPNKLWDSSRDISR
Description: as §1, §2, §3, §4, §5, §6

[29] = target: TSSK1 (Homo sapiens, UniProt Q9BXA7)
Description: as §1, §2, §3, §4, §5, §6

[30] = test system: PINK
Description: as §1, §2, §3, §4, §5, §6

[31] = target: GSK3b (Homo sapiens, UniProt P49841)
Description: as §1, §2, §3, §4, §5, §6

[32] = target: HIPK1 (Homo sapiens, UniProt Q86Z02)
Description: as §1, §2, §3, §4, §5, §6

[33] = target: PAK6 (Homo sapiens, UniProt Q9NQU5)
Chain of PAK6 (Q9NQU5 whole entry): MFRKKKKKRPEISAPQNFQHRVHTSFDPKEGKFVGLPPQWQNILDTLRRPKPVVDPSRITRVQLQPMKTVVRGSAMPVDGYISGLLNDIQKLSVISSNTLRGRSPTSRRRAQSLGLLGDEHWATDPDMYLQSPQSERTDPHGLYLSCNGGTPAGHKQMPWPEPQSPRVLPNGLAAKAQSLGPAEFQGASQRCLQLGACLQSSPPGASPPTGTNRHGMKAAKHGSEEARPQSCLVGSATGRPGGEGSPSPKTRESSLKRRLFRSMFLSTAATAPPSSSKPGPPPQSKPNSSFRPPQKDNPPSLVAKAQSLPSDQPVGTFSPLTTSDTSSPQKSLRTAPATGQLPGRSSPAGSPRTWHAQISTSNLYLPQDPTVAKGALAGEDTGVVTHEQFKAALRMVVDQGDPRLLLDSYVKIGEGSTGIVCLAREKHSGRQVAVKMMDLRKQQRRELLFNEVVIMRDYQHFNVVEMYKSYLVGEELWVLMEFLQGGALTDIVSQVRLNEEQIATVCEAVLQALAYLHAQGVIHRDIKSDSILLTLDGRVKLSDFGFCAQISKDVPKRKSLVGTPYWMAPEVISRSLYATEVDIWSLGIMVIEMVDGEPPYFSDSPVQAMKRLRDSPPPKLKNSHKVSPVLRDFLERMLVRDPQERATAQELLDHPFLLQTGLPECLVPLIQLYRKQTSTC
Description: as §1, §2, §3, §4, §5, §6

[34] = target: SIK3 (Homo sapiens, UniProt Q9Y2K2)
Description: as §1, §2, §3, §4, §5, §6

[35] = target: PDK1 (Homo sapiens, UniProt O15530)
Description: as §1, §2, §3, §4, §5, §6

| SMILES | % activity remaining [1] [%] | % activity remaining [2] [%] | % activity remaining [3] [%] | % activity remaining [4] [%] | % activity remaining [5] [%] | % activity remaining [6] [%] | % activity remaining [7] [%] | % activity remaining [8] [%] | % activity remaining [9] [%] | % activity remaining [10] [%] | % activity remaining [11] [%] | % activity remaining [12] [%] | % activity remaining [13] [%] | % activity remaining [14] [%] | % activity remaining [15] [%] | % activity remaining [16] [%] | % activity remaining [17] [%] | % activity remaining [18] [%] | % activity remaining [19] [%] | % activity remaining [20] [%] | also measured |
| --- | --- | --- | --- | --- | --- | --- | --- | --- | --- | --- | --- | --- | --- | --- | --- | --- | --- | --- | --- | --- | --- |
| Cc1cc(=O)n(C2CCCC2)c2nc(Nc3ccc(N4CC5CC(C4)N5C)cc3)ncc12 [Compound 9] | 103 | 90 | 52 | 19 | 97 | 85 | 80 | 94 | 53 | 103 | 96 | 94 | 67 | 29 | 91 | 50 | 115 | 32 | 101 | 74 | % activity remaining [21]: 90%; % activity remaining [22]: 49%; % activity remaining [23]: 23%; % activity remaining [24]: 78%; % activity remaining [25]: 59%; % activity remaining [26]: 99%; % activity remaining [27]: 76%; % activity remaining [28]: 23%; % activity remaining [29]: 56%; % activity remaining [30]: 96%; % activity remaining [31]: 101%; % activity remaining [32]: 88%; % activity remaining [33]: 78%; % activity remaining [34]: 85%; % activity remaining [35]: 90% |
| CN1C2CC1CN(c1ccc(Nc3ncc4ccn(CC5CCOCC5)c4n3)cc1)C2 [Compound 24] | 110 | 91 | 54 | 81 | 99 | 63 | 102 | 95 | 84 | 103 | 72 | 91 | 56 | 62 | 82 | 89 | 62 | 64 | 93 | 65 | % activity remaining [21]: 75%; % activity remaining [22]: 73%; % activity remaining [23]: 77%; % activity remaining [24]: 141%; % activity remaining [25]: 79%; % activity remaining [26]: 111%; % activity remaining [27]: 89%; % activity remaining [28]: 90%; % activity remaining [29]: 77%; % activity remaining [30]: 99%; % activity remaining [31]: 69%; % activity remaining [32]: 82%; % activity remaining [33]: 118%; % activity remaining [34]: 74%; % activity remaining [35]: 95% |
